In patent US11279768B1, “Anti-cancer antibodies, combination therapies, and uses thereof” (PRECISION BIOLOGICS, INC., priority 2015, dated 2022):

Legend:
[1] = tested on: colorectal adenocarcinoma cells; test: Antigen expression by Flow Cytometry, colorectal adenocarcinoma cell lines; assay type: binding, Human; settings: multiple colorectal adenocarcinoma cell lines; primary antibody 10 ug/mL
Description: (§1) FIG. 1. NEO-101, NEO-201 and NEO-301 Antigen Expression by Human Normal and Cancer Cell Lines. NEO-101, NEO-201 and NEO-301 specific antigen expression in various cell lines were detected by Flow Cytometry. Viable cell suspensions were incubated with primary antibody NEO-101, NEO-201 and NEO-301 separately at 10 ug/mL. Human IgG (10 ug/mL) was used as negative control. Goat anti-human IgG (Fc)-phycoerythrin conjugate was used for primary antibody detection; 7-ADD was used for excluding dead cells from analysis. The staining was measured by Flow Cytometry (Guava instrument, Millipore). Median fluorescent intensity (MFI) and % of stained cells was used for determining presence of specific antigen on each cell line.
(§2) Antigen expression in cell lines of various origins were detected by Flow Cytometry. Viable cell suspensions were incubated with primary antibody NEO-101, NEO-201 and NEO-301 separately at 10 ug/mL. Human IgG (10 ug/mL) was used as negative control. Goat anti-human IgG (Fc)-phycoerythrin conjugate was used for primary antibody detection; 7-ADD was used for excluding dead cells from analysis. The staining was measured by Flow Cytometry (Guava instrument, Millipore). Median fluorescent intensity (MFI) and % of stained cells was used for determining presence of specific antigen on each cell line. […]

[2] = tested on: pancreatic adenocarcinoma cells; test: Antigen expression by Flow Cytometry, pancreatic adenocarcinoma cell lines; assay type: binding, Human; settings: primary antibody 10 ug/mL
Description: as §1, §2

[3] = tested on: lung adenocarcinoma cells; test: Antigen expression by Flow Cytometry, lung adenocarcinoma cell lines; assay type: binding, Human; settings: multiple lung adenocarcinoma cell lines; primary antibody 10 ug/mL
Description: as §1, §2

[4] = tested on: lung squamous carcinoma cells; test: Antigen expression by Flow Cytometry, lung squamous cell carcinoma cell lines; assay type: binding, Human; settings: multiple lung squamous cell carcinoma cell lines; primary antibody 10 ug/mL
Description: as §1, §2

[5] = tested on: colon cancer samples; test: Immunohistochemistry, cancer tissue microarray, colon; assay type: binding
Description: (§3) FIG. 2. Immunohistochemistry results from cancer tissue arrays. Immunohistochemistry method (IHC) was used for determining the presence of NEO-101/102, NEO-201 and NEO-301 antigens on paraffin microarrays and tissues. These primary antibodies (NEO-101/NEO-102, NEO-201 and NEO-301) were biotinylated prior to use. Paraffin tissue Microarrays and slides of tissues were reacted with the primary Ab after inactivating endogenous peroxidase and blocking the slides. Staining was detected with streptavidin-horseradish peroxidase conjugate and visualized with chromogen. Biotinylated human IgG1 was used as negative control and mouse anti-human cytokeratin monoclonal antibody was used as positive control. Antibody staining is measured as % and intensity of tumor epithelial cells and luminal secretion within the whole tissue section.
(§4) Immunohistochemistry (IHC) was used for determining the presence of NEO-101/102, NEO-201 and NEO-301 antigens on paraffin microarrays and tissues. These primary antibodies (NEO-101/NEO-102, NEO-201 and NEO-301) were biotinylated prior to use. […] Staining was detected with streptavidin-horseradish peroxidase conjugate and visualized with chromogen. […] Antibody staining was measured as % and intensity of tumor epithelial cells and luminal secretion within the whole tissue section. […]

[6] = tested on: pancreatic cancer samples; test: Immunohistochemistry, cancer tissue microarray, pancreas; assay type: binding
Description: as §3, §4

[7] = tested on: lung cancer samples; test: Immunohistochemistry, cancer tissue microarray, lung; assay type: binding
Description: as §3, §4

[8] = tested on: uterus cancer samples; test: Immunohistochemistry, cancer tissue microarray, uterus; assay type: binding
Description: as §3, §4

[9] = tested on: skin cancer samples; test: Immunohistochemistry, cancer tissue microarray, skin; assay type: binding
Description: as §3, §4

[10] = tested on: colon cancer samples; test: Immunohistochemistry, paraffin tissue sections, colon; assay type: binding
Description: as §3, §4

[11] = tested on: pancreatic cancer samples; test: Immunohistochemistry, paraffin tissue sections, pancreas; assay type: binding
Description: as §3, §4

[12] = tested on: lung cancer samples; test: Immunohistochemistry, paraffin tissue sections, lung; assay type: binding
Description: as §3, §4

[13] = tested on: stomach cancer samples; test: Immunohistochemistry, cancer tissue microarray, stomach; assay type: binding
Description: as §3, §4

Molecule | antigen expression detected by Flow Cytometry [1] | antigen expression detected by Flow Cytometry [2] | antigen expression detected by Flow Cytometry [3] | antigen expression detected by Flow Cytometry [4] | cancer samples positive for the antigen (IHC) [5] [%] | cancer samples positive for the antigen (IHC) [6] [%] | cancer samples positive for the antigen (IHC) [7] [%] | cancer samples positive for the antigen (IHC) [8] [%] | cancer samples positive for the antigen (IHC) [9] [%] | cancer samples positive for the antigen (IHC) [10] [%] | cancer samples positive for the antigen (IHC) [11] [%] | cancer samples positive for the antigen (IHC) [12] [%] | cancer samples positive for the antigen (IHC) [13] [%]
NEO-201: Humanized 16C3 antibody; binds epitopes in CEACAM5 and CEACAM6 | detected | detected | detected | detected | 85 | 86 | 61 | 51 | 16 | 94 | 83 | 90 | 
NEO-101: Chimeric NPC-1 antibody, engineered in CHO-DG44 production cell clone 4B7; targets a variant of MUC5AC (protein, NPC-1 antibody light chain; (46)..(55) CDR1; (71)..(77) CDR2; (110)..(118) CDR3; NPC-1 antibody heavy chain; (49)..(54) CDR1; (69)..(84) CDR2; (114)..(121) CDR3, Chimeric NPC-1 antibody, engineered in CHO-DG44 production cell clone 4B7; targets a variant of MUC5AC) light: MDFQVQIFSFLLISASVILSRGQVVLTQSPVIMSASPGEKVTMTCSASSSISYMYWYQQKPGTSPKRWIYDTSKLASGVPARFSGSGSGTSYSLTISNMEAGDAATYYCHQRDSYPWTFGGGTNLEIKRADAAPTVSIFPPSSEQLTSGGASVVCFLNNFYPKDINVKWKIDGSERQNGVLNSWTDQDSKDSTYSMSSTLTLTKDEYERHNSYTCEATHKTSTSPIVKSFNRNEC heavy: MAVLALLLCLVTFPSCVLSQVQLKESGPDLVAPSQSLSITCTVSGFSLSKFGVNWVRQPPGKGLEWLGVIWGDGSTSYNSGLISRLSISKENSKSQVFLKLNSLQADDTATYYCVKPGGDYWGHGTSVTVSSAKTTPPSVYPLAPGSAAQTNSMVTLGCLVKGYFPEPVTVTWNSGSLSSGVHTFPAVLQSDLYTLSSSVTVPSSTWPSETVTCNVAHPASSTKVDKKIVPRDCGCKPCICTVPEVSSVFIFPPKPKDVLTITLTPKVTCVVVDISKDDPEVQFSWFVDDVEVHTAQTQPREEQFNSTFRSVSELPIMHQDWLNGKEFKCRVNSAAFPAPIEKTISKTKGRPKAPQVYTIPPPKEQMAKDKVSLTCMITDFFPEDITVEWQWNGQPAENYKNTQPIMDTDGSYFVYSKLNVQKSNWEAGNTFTCSVLHEGLHNHHTEKSLSHSPGK | detected | detected |  |  | 61 | 31 |  | 41 |  | 87 | 82 | 67 | 30
